Test results reported in patent US20260116921A1, “PEPTIDE INHIBITORS OF INTERLEUKIN-23 RECEPTOR AND THEIR USE TO TREAT INFLAMMATORY DISEASES” (priority 2018, published 2026).
Where two headings read alike, the source gives them in different places. Numbered stars: 1 amine (or outer) side, 2 acyl side, 3 side chain; on linkers, the order of the positions; unused ones are H or OH. Bridge positions count the residues as written; N and C are the ends. Square brackets hold non-standard residues; d marks the D form. Peptide text beside a SMILES is read from it. Trp(4-OMe) = COc1cccc2[nH]cc(C[C@H](N)C(=O)O)c12; Trp(5-Cl) = N[C@@H](Cc1c[nH]c2ccc(Cl)cc12)C(=O)O; Trp(5-OH) = N[C@@H](Cc1c[nH]c2ccc(O)cc12)C(=O)O; Trp(7-Me) = Cc1cccc2c(C[C@H](N)C(=O)O)c[nH]c12; Abu(4-yl) = O=C([C@H](CC[*:3])N[*:1])[*:2]; 2Nal = N[C@@H](Cc1ccc2ccccc2c1)C(=O)O; AEF = NCCOc1ccc(C[C@H](N)C(=O)O)cc1; Cit = NC(=O)NCCC[C@H](N)C(=O)O; αMeL = CC(C)C[C@](C)(N)C(=O)O; Pen = CC(C)(S)[C@H](N)C(=O)O; αMeK = C[C@](N)(CCCCN)C(=O)O; Aib = CC(C)(N)C(=O)O; βAla = NCCC(=O)O

What was measured:
in vitro = in vitro ADME; parameters: half-life: dose or concentration left out as unconfirmed; conditions: pH 6.8, 37° C., § matrix is 100 fold dilution of standard SIF concentration; for SIF t½: simulated intestinal fluid, pancreatin; for half-life: simulated intestinal fluid (SIF) with pancreatin, read-out: SIF t½ (converted)
[1] = 20% cynomolgus monkey fecal homogenate, 37° C., 20 μM
Method: (§1) Fecal homogenate (20%) was prepared by adding 4 mL of growth medium (1 liter contains 2 g peptone water powder, 2 g yeast extract, 0.1 g NaCl, 0.04 g KH2PO4, 0.01 g CaCl2·6H2O, 0.01 g MgSO4·7H2O, 2 mL Tween 80, 0.5 g bile salts, 0.5 g L-cysteine HCl, 2 g NaHCO3, and 10 μL Vitamin K, pH adjusted to 6.8, and sterilized by filtration through a 0.22 μm filter) to every gram of feces (pooled freshly collected human or cynomolgus monkey feces). The suspension was vortexed to break up large clumps, and homogenized using a bead mill homogenizer. Centrifuged the homogenate at 2800×g for 15 min. The supernatant is taken out and used for incubations. DMSO stocks (10 mM) were first prepared for the test compounds. Incubations were performed in an anaerobic chamber conditioned at 37° C. Aliquots of the DMSO solutions were dosed into 1.0 mL aliquots of 20% fecal homogenate, which are pre-warmed to 37° C. The final test compound concentration was 20 μM. At each timepoint (0, 20 min, 1, 3, 6, or 24 hours), 100 μL aliquot of each incubation mixture is taken out and added to separate tubes containing 300 μL of 50% acetonitrile/50% methanol and an internal standard to terminate the reaction. Samples were taken out of the anaerobic chamber and stored at 4° C. until the end of the experiment. After the final timepoint is sampled, the tubes were mixed and then centrifuged at 3,000 rpm for 10 minutes. Aliquots of the supernatant were removed, diluted 1:1 into distilled water containing 0.1% formic acid, and analyzed by LC/MS/MS. Percent remaining at each timepoint was calculated based on the peak area response ratio of test to compound to internal standard. Time 0 was set to 100%, and all later timepoints were calculated relative to time 0. Half-lives were calculated by fitting to a first-order exponential decay equation using Graphpad or Excel.

[2] = SD rat plasma, 37° C., 20 μM
[3] = 20% human fecal homogenate, 37° C., 20 μM
Method: as §1

IL-23R [4] = target: T1, IL-23R (Homo sapiens, UniProt Q5VWK5); assay: DB cells IL23R pSTAT3 cell assay (pStat3 HTRF); assay type: cell-based; conditions: Table E3; DB cells, IL-23 0.5 nM, 30 minutes at 37° C.; read-out: pStat3 HTRF (IC50)
T1 sequence (Q5VWK5 24-629): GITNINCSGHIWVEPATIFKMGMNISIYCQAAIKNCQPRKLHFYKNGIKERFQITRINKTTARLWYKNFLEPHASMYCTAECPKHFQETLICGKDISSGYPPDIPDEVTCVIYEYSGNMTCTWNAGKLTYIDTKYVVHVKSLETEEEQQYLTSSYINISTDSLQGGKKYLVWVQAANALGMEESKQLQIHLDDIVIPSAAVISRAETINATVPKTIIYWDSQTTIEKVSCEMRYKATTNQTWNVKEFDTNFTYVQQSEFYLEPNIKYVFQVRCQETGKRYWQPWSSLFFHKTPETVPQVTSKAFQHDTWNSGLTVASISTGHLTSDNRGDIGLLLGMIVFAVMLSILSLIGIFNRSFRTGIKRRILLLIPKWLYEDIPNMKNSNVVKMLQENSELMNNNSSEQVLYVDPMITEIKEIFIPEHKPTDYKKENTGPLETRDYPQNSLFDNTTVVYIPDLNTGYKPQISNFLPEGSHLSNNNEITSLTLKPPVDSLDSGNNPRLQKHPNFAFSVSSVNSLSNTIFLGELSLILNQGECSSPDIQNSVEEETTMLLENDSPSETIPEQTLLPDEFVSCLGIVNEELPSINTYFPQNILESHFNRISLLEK
Outline: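 DB cells (5×10E5/well, RPMI-1640 + 10% FBS) stimulated with 0.5 nM final IL-23 plus serially diluted test peptides for 30 min at 37 °C, 5% CO2. Phospho-STAT3 (Tyr705) in lysates measured by HTRF using a two-plate protocol.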

IL-23R [5] = target: T2, IL-23R (human, UniProt Q5VWK5 24-629); assay: cell-based or functional assay
T2 sequence (looked up): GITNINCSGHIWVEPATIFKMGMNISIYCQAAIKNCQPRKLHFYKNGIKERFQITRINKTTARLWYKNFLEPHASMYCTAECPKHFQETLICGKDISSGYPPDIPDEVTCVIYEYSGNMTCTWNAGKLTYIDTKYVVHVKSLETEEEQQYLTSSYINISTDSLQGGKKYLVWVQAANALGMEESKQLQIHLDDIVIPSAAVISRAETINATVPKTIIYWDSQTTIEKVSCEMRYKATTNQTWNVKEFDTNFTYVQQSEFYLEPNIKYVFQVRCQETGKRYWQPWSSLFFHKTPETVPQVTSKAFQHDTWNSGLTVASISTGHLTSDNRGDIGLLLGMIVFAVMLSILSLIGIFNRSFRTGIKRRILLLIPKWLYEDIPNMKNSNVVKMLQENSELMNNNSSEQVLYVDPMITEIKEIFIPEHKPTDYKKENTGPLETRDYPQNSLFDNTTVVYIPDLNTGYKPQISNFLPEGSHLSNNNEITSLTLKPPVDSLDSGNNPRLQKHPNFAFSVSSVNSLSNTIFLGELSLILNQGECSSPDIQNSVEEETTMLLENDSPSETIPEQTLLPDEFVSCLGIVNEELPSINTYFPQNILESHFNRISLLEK

IL-23R [6] = target: T2, IL-23R; assay: cell-based or functional assay; remark: listed apart in the source
IL-23R [7] = target: T2, IL-23R; assay: cell-based or functional assay; remark: listed apart in the source

CC(=O)NCCCC[C@@H]1NC(=O)[C@H](Cc2c[nH]c3c(C)cccc23)NC(=O)[C@H]([C@@H](C)O)NC(=O)[C@H](CC(N)=O)NC(=O)[C@@H](NC(C)=O)C(C)(C)SSC(C)(C)[C@@H](C(=O)N[C@@H](Cc2ccc(OCCN)cc2)C(=O)N[C@@H](Cc2ccc3ccccc3c2)C(=O)N[C@@](C)(CCCCN)C(=O)N[C@@H](CCCCNC(C)=O)C(=O)N[C@@H](CC(N)=O)C(=O)N[C@H](Cc2ccccc2)C(N)=O)NC1=O [compound 258]
SIF t½ (in vitro): 14 h | t½: Monkey Feces anaerobic [1]: >24 h | t½: Rat Plasma EDTA [2]: >24 h | t½: Human Feces anaerobic [3]: >24 h

CC(=O)NCCCC[C@H](NC(=O)[C@](C)(CC(C)C)NC(=O)[C@H](Cc1ccc2ccccc2c1)NC(=O)[C@H](Cc1ccc(OCCN)cc1)NC(=O)[C@H]1NC(=O)[C@H](CCC(N)=O)NC(=O)[C@H](Cc2c[nH]c3c(C)cccc23)NC(=O)[C@H]([C@@H](C)O)NC(=O)[C@H](CC(N)=O)NC(=O)[C@@H](NC(C)=O)C(C)(C)SSC1(C)C)C(=O)N[C@@H](C(=O)NCCC(N)=O)[C@H](C)O [compound 218]
t½: Rat Plasma EDTA [2]: 1 h

CC(=O)NCCCC[C@H](NC(=O)[C@](C)(CCCCN)NC(=O)[C@H](Cc1ccc2ccccc2c1)NC(=O)[C@H](Cc1ccc(OCCN)cc1)NC(=O)[C@H]1NC(=O)[C@H](CCC(N)=O)NC(=O)[C@H](Cc2c[nH]c3c(C)cccc23)NC(=O)[C@H]([C@@H](C)O)NC(=O)C(C)(C)NC(=O)[C@@H](NC(C)=O)C(C)(C)SSC1(C)C)C(=O)N[C@@H](CC(N)=O)C(=O)NCCC(N)=O [compound 240] (Ac-[Pen][Aib]T[Trp(7-Me)]Q[Pen][AEF][2Nal][αMeK]K(Ac)N[βAla]-NH2; disulfide 1-6)
t½: Monkey Feces anaerobic [1]: 3 h | t½: Rat Plasma EDTA [2]: 8 h | IC50 (IL-23R [4]): 10 to 100 nM | t½: Human Feces anaerobic [3]: 4 h

CC(=O)NCCCC[C@H](NC(=O)[C@](C)(CCCCN)NC(=O)[C@H](Cc1ccc2ccccc2c1)NC(=O)[C@H](Cc1ccc(OCCN)cc1)NC(=O)[C@H]1NC(=O)[C@H](CCCCNC(=O)C(C)(C)N)NC(=O)[C@H](Cc2c[nH]c3c(C)cccc23)NC(=O)[C@H]([C@@H](C)O)NC(=O)[C@H](CC(N)=O)NC(=O)[C@@H](NC(C)=O)C(C)(C)SSC1(C)C)C(=O)N[C@@H](CC(N)=O)C(=O)N[C@H](CC(C)C)C(N)=O [compound 322]
half-life (in vitro): 1 h | t½: Monkey Feces anaerobic [1]: >24 h | t½: Human Feces anaerobic [3]: >24 h

CC(=O)NCCCC[C@@H]1NC(=O)[C@H](Cc2c[nH]c3c(C)cccc23)NC(=O)[C@H]([C@@H](C)O)NC(=O)[C@H](CCC(N)=O)NC(=O)[C@@H](NC(=O)[C@@H](CCCNC(=N)N)NC(C)=O)CCSC[C@@H](C(=O)N[C@@H](Cc2ccc(OCCN)cc2)C(=O)N[C@@H](Cc2ccc3ccccc3c2)C(=O)N[C@@](C)(CCCCN)C(=O)N[C@@H](CCCCNC(C)=O)C(=O)N[C@@H](CC(N)=O)C(=O)N[C@H](CC(C)C)C(N)=O)NC1=O [compound 325] (Ac-[dR][Abu(4-yl)]QT[Trp(7-Me)]K(Ac)C[AEF][2Nal][αMeK]K(Ac)N[dL]-NH2; thioether 2-7)
half-life (in vitro): 2 h | t½: Monkey Feces anaerobic [1]: 22 h | t½: Human Feces anaerobic [3]: >24 h

CC(=O)NCCCC[C@H](NC(=O)[C@](C)(CC(C)C)NC(=O)[C@H](Cc1ccc2ccccc2c1)NC(=O)[C@H](Cc1ccc(OCCN)cc1)NC(=O)[C@H]1NC(=O)[C@H](CCC(N)=O)NC(=O)[C@H](Cc2c[nH]c3c(C)cccc23)NC(=O)[C@H]([C@@H](C)O)NC(=O)[C@H](CC(N)=O)NC(=O)[C@@H](NC(C)=O)C(C)(C)SSC1(C)C)C(=O)N1CCC[C@H]1C(=O)NCCC(N)=O [compound 211]
t½: Monkey Feces anaerobic [1]: >24 h | IC50 (IL-23R [4]): > 100 nM | t½: Human Feces anaerobic [3]: 10 h

CC(=O)N[C@@H]1C(=O)N[C@@H](CC(N)=O)C(=O)N[C@@H]([C@@H](C)O)C(=O)N[C@@H](Cc2c[nH]c3c(C)cccc23)C(=O)N[C@@H](CCCNC(N)=O)C(=O)N[C@H](C(=O)N[C@@H](Cc2ccc(OCCN)cc2)C(=O)N[C@@H](Cc2ccc3ccccc3c2)C(=O)N[C@@](C)(CCCCN)C(=O)N[C@@H](CCCNC(N)=O)C(=O)NCCC(=O)NCCC(N)=O)C(C)(C)SSC1(C)C [compound 281] (Ac-[Pen]NT[Trp(7-Me)][Cit][Pen][AEF][2Nal][αMeK][Cit][βAla][βAla]-NH2; disulfide 1-6)
SIF t½ (in vitro): 14 h | t½: Monkey Feces anaerobic [1]: >24 h | t½: Rat Plasma EDTA [2]: >24 h | IC50 (IL-23R [4]): 10 to 100 nM | t½: Human Feces anaerobic [3]: >24 h

B1: SEQ ID NO: 21 (peptide)
peptide: Ac-[Pen]NTWQ[Pen][AEF][Trp(5-OH)][αMeL]K(Ac)NN-NH2
modifications: disulfide 1-6
SMILES: CC(=O)NCCCC[C@H](NC(=O)[C@](C)(CC(C)C)NC(=O)[C@H](Cc1c[nH]c2ccc(O)cc12)NC(=O)[C@H](Cc1ccc(OCCN)cc1)NC(=O)[C@H]1NC(=O)[C@H](CCC(N)=O)NC(=O)[C@H](Cc2c[nH]c3ccccc23)NC(=O)[C@H]([C@@H](C)O)NC(=O)[C@H](CC(N)=O)NC(=O)[C@@H](NC(C)=O)C(C)(C)SSC1(C)C)C(=O)N[C@@H](CC(N)=O)C(=O)N[C@@H](CC(N)=O)C(N)=O
pStat3 HTRF (nM) IC50 (IL-23R [5]): > 100 nM

B2: SEQ ID NO: 15 (peptide)
peptide: Ac-[Pen]NTWQ[Pen][AEF][Trp(4-OMe)][αMeL]K(Ac)NN-NH2
modifications: disulfide 1-6
SMILES: COc1cccc2[nH]cc(C[C@H](NC(=O)[C@H](Cc3ccc(OCCN)cc3)NC(=O)[C@H]3NC(=O)[C@H](CCC(N)=O)NC(=O)[C@H](Cc4c[nH]c5ccccc45)NC(=O)[C@H]([C@@H](C)O)NC(=O)[C@H](CC(N)=O)NC(=O)[C@@H](NC(C)=O)C(C)(C)SSC3(C)C)C(=O)N[C@@](C)(CC(C)C)C(=O)N[C@@H](CCCCNC(C)=O)C(=O)N[C@@H](CC(N)=O)C(=O)N[C@@H](CC(N)=O)C(N)=O)c12
pStat3 HTRF (nM) IC50 (IL-23R [5]): > 100 nM

B3: SEQ ID NO: 6 (peptide)
peptide: XNTXQXXXXKNN
modifications: Ac-[Pen]-NT-[W(7-Me)]-Gln-[Pen]-[Phe[4-(2-aminoethoxy)]-[2-Nal]-[α-MeLeu]-[Lys(Ac)]-NN-NH2; Pen-Pen disulfide
NK Cell Assay (nM) IC50 (IL-23R [6]): < 10 nM | pStat3 HTRF (nM) IC50 (IL-23R [5]): < 1 nM

B4: SEQ ID NO: 12 (peptide)
peptide: Ac-[Pen]NTWQ[Pen][AEF][Trp(5-Cl)][αMeL]K(Ac)NN-NH2
modifications: disulfide 1-6
SMILES: CC(=O)NCCCC[C@H](NC(=O)[C@](C)(CC(C)C)NC(=O)[C@H](Cc1c[nH]c2ccc(Cl)cc12)NC(=O)[C@H](Cc1ccc(OCCN)cc1)NC(=O)[C@H]1NC(=O)[C@H](CCC(N)=O)NC(=O)[C@H](Cc2c[nH]c3ccccc23)NC(=O)[C@H]([C@@H](C)O)NC(=O)[C@H](CC(N)=O)NC(=O)[C@@H](NC(C)=O)C(C)(C)SSC1(C)C)C(=O)N[C@@H](CC(N)=O)C(=O)N[C@@H](CC(N)=O)C(N)=O
pStat3 HTRF (nM) IC50 (IL-23R [5]): > 100 nM

B5: SEQ ID NO: 28 (peptide)
peptide: XQTXQCXXXENN
modifications: Ac-[Abu]-QT-[W(7-Me)]-QC-[Phe[4-(2-aminoethoxy)]-[2-Nal]-[THP]-ENN-NH2; Abu-Cys thioether
pStat3 HTRF (nM) IC50 (IL-23R [7]): < 1 nM

B6: SEQ ID NO: 27 (peptide)
peptide: RXQTXQCXXXENN
modifications: Ac-[(D)Arg]-[Abu]-QT-[W(7-Me)]-QC-[Phe[4-(2-aminoethoxy)]-[2-Nal]-[THP]-ENN-NH2; Abu-Cys thioether
pStat3 HTRF (nM) IC50 (IL-23R [7]): < 1 nM

B7: SEQ ID NO: 29 (peptide)
peptide: RXQTXQCXXXKNN
modifications: Ac-[(D)Arg]-[Abu]-QT-[W(7-Me)]-QC-[Phe[4-(2-aminoethoxy)]-[2-Nal]-[THP]-[Lys(Ac)]-NN-NH2; Abu-Cys thioether
pStat3 HTRF (nM) IC50 (IL-23R [7]): < 1 nM
